Structures can show the parent of a compound that is named as a salt.
test system: Bmi-1 protein; test: Sandwich ELISA Assay (Bmi-1 protein level in HT-1080 cells after compound treatment); format: cell-based; details: Table 1, Bmi-1 sandwich ELISA, read-out: ELISA EC50 value for Bmi-1 protein
Method in brief: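 HT-1080 cells exposed to compounds for 40–48 h at 37 °C (0.5% DMSO final), then lysed. Bmi-1 in lysates measured by sandwich ELISA (mouse monoclonal capture, rabbit anti-Bmi-1 detection, HRP anti-rabbit, TMB), read at OD450 with OD570 reference against a recombinant Bmi-1 standard curve (0–8000 pg/mL).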

SMILES | EC50 [µM]
CCc1nc2ncncc2n1-c1cncc(Nc2ccc(C(F)(F)F)cc2)n1 [compound 94, 6-(8-ethyl-7H-purin-7-yl)-N-[4-(trifluoromethyl)phenyl]pyrazin-2-amine] | 0.1 to 3
Cc1nc2ncccc2n1-c1cncc(Nc2ccc(OC(F)(F)F)cc2)n1 [compound 95, 6-(2-methyl-1H-imidazo[4,5-b]pyridin-1-yl)-N-[4-(trifluoromethoxy)phenyl]pyrazin-2-amine] | 0.01 to 0.1
Cc1cc(Nc2cncc(-c3c(C(F)(F)F)nc4ccccn34)n2)on1 [compound 97, N-(3-methyl-1,2-oxazol-5-yl)-6-[2-(trifluoromethyl)imidazo[1,2-a]pyridin-3-yl]pyrazin-2-amine] | 0.1 to 3
FC(F)(F)Oc1ccc(Nc2cccc(-c3c(C(F)(F)F)nc4ncccn34)n2)cc1 [compound 99, N-[4-(trifluoromethoxy)phenyl]-6-[2-(trifluoromethyl)imidazo[1,2-a]pyrimidin-3-yl]pyridin-2-amine] | 0.1 to 3
COc1ccc2nc(C(F)(F)F)c(-c3cccc(Nc4ccc(OC(F)(F)F)cc4)n3)n2c1 [compound 101, 6-[6-methoxy-2-(trifluoromethyl)imidazo[1,2-a]pyridin-3-yl]-N-[4-(trifluoromethoxy)phenyl]pyridin-2-amine] | 0.01 to 0.1
COc1ccc2nc(C(F)(F)F)c(-c3cccc(Nc4ccc(OC(F)F)cc4)n3)n2c1 [compound 103, N-[4-(difluoromethoxy)phenyl]-6-[6-methoxy-2-(trifluoromethyl)imidazo[1,2-a]pyridin-3-yl]pyridin-2-amine] | 0.01 to 0.1
Cc1nn(C)c(C)c1-c1cncc(Nc2ccc(OC(F)(F)F)cc2)n1 [compound 105, N-[4-(trifluoromethoxy)phenyl]-6-(1,3,5-trimethyl-1H-pyrazol-4-yl)pyrazin-2-amine] | 0.01 to 0.1
Cc1nn(C)c(C)c1-c1cncc(Nc2ccc(Br)cc2)n1 [compound 106, N-(4-bromophenyl)-6-(1,3,5-trimethyl-1H-pyrazol-4-yl)pyrazin-2-amine] | < 0.001
Oc1ccc2nc(C(F)(F)F)c(-c3cccc(Nc4ccc(OC(F)(F)F)cc4)n3)n2c1 [compound 110, 3-(6-{[4-(trifluoromethoxy)phenyl]amino}pyridin-2-yl)-2-(trifluoromethyl)imidazo[1,2-a]pyridin-6-ol] | 0.1 to 3
Oc1ccc2nc(C(F)(F)F)c(-c3cccc(Nc4ccc(C(F)(F)F)cc4)n3)n2c1 [compound 111, 2-(trifluoromethyl)-3-(6-{[4-(trifluoromethyl)phenyl]amino}pyridin-2-yl)imidazo[1,2-a]pyridin-6-ol] | 0.01 to 0.1
COc1ccc2nc(C(F)(F)F)c(-c3cccc(Nc4ccc(OC=O)cc4)n3)n2c1 [compound 112, 4-({6-[6-methoxy-2-(trifluoromethyl)imidazo[1,2-a]pyridin-3-yl]pyridin-2-yl}amino)phenyl formate] | 0.1 to 3
FC(F)(F)Oc1ccc(Nc2cncc(-c3c(C(F)(F)F)nc4sccn34)n2)cc1 [compound 120, N-[4-(trifluoromethoxy)phenyl]-6-[6-(trifluoromethyl)imidazo[2,1-b][1,3]thiazol-5-yl]pyrazin-2-amine] | 0.01 to 0.1
FC(F)(F)c1nc2sccn2c1-c1cncc(Nc2ccccc2)n1 [compound 122, N-phenyl-6-[6-(trifluoromethyl)imidazo[2,1-b][1,3]thiazol-5-yl]pyrazin-2-amine] | 0.1 to 3
FC(F)(F)c1ccc(Nc2cncc(-n3c(C(F)(F)F)nc4ncccc43)n2)cc1 [compound 123, 6-[2-(trifluoromethyl)-1H-imidazo[4,5-b]pyridin-1-yl]-N-[4-(trifluoromethyl)phenyl]pyrazin-2-amine] | 0.1 to 3
CCNc1nc2ccccc2n1-c1cncc(Nc2ccc(C(F)(F)F)cc2)n1 [compound 138, N-ethyl-1-(6-{[4-(trifluoromethyl)phenyl]amino}pyrazin-2-yl)-1H-benzimidazol-2-amine] | 0.01 to 0.1
Cc1nn(C)c(C)c1-c1cncc(Nc2ccc(OC(F)F)cc2)n1 [compound 143, N-[4-(difluoromethoxy)phenyl]-6-(1,3,5-trimethyl-1H-pyrazol-4-yl)pyrazin-2-amine] | < 0.001
CC(O)c1nc2ccccc2n1-c1cncc(Nc2ccc(C(F)(F)F)cc2)n1 (stereo not drawn) [compound 150, 1-[1-(6-{[4-(trifluoromethyl)phenyl]amino}pyrazin-2-yl)-1H-benzimidazol-2-yl]ethanol] | 0.01 to 0.1
OCc1nc2ccccn2c1-c1cncc(Nc2ccc(C(F)(F)F)cc2)n1 [compound 151, [3-(6-{[4-(trifluoromethyl)phenyl]amino}pyrazin-2-yl)imidazo[1,2-a]pyridin-2-yl]methanol] | 0.001 to 0.01
CC(=O)c1ccc(Nc2cncc(-n3c(C)nc4ccccc43)n2)cc1 [compound 153, 1-(4-{[6-(2-methyl-1H-benzimidazol-1-yl)pyrazin-2-yl]amino}phenyl)ethanone] | 0.001 to 0.01

The remaining lines, values ahead:

EC50 [µM] | SMILES
0.01 to 0.1 | C[C@H](O)c1nc2ccccc2n1-c1cncc(Nc2ccc(C(F)(F)F)cc2)n1 [compound 98, (1S)-1-[1-(6-{[4-(trifluoromethyl)phenyl]amino}pyrazin-2-yl)-1H-benzimidazol-2-yl]ethanol]
0.01 to 0.1 | COc1ccc2nc(C(F)(F)F)c(-c3cccc(Nc4ccc(C(F)(F)F)cc4)n3)n2c1 [compound 102, 6-[6-methoxy-2-(trifluoromethyl)imidazo[1,2-a]pyridin-3-yl]-N-[4-(trifluoromethyl)phenyl]pyridin-2-amine]
0.01 to 0.1 | FC(F)Oc1ccc(Nc2cccc(-c3c(C(F)(F)F)nc4ncccn34)n2)cc1 [compound 108, N-[4-(difluoromethoxy)phenyl]-6-[2-(trifluoromethyl)imidazo[1,2-a]pyrimidin-3-yl]pyridin-2-amine]
0.1 to 3 | COc1ccc2nc(C(F)(F)F)c(-c3cccc(Nc4ccc(O)cc4)n3)n2c1 [compound 113, 4-({6-[6-methoxy-2-(trifluoromethyl)imidazo[1,2-a]pyridin-3-yl]pyridin-2-yl}amino)phenol]
0.001 to 0.01 | FC(F)(F)c1ccc(Nc2cncc(-c3c(C(F)(F)F)nc4sccn34)n2)cc1 [compound 118, 6-[6-(trifluoromethyl)imidazo[2,1-b][1,3]thiazol-5-yl]-N-[4-(trifluoromethyl)phenyl]pyrazin-2-amine]
< 0.001 | COc1ccc(Nc2cncc(-c3c(C(F)(F)F)nc4sccn34)n2)cc1 [compound 119, N-(4-methoxyphenyl)-6-[6-(trifluoromethyl)imidazo[2,1-b][1,3]thiazol-5-yl]pyrazin-2-amine]
0.001 to 0.01 | FC(F)Oc1ccc(Nc2cncc(-c3c(C(F)(F)F)nc4sccn34)n2)cc1 [compound 121, N-[4-(difluoromethoxy)phenyl]-6-[6-(trifluoromethyl)imidazo[2,1-b][1,3]thiazol-5-yl]pyrazin-2-amine]
0.1 to 3 | CCc1nc(C)c(-c2cncc(Nc3ccc(C(F)(F)F)cc3)n2)n1Cc1ccccc1 [compound 126]
0.01 to 0.1 | COC(=O)c1ccc(Nc2cncc(-n3c(C)nc4ccccc43)n2)cc1 [compound 133, methyl 4-{[6-(2-methyl-1H-benzimidazol-1-yl)pyrazin-2-yl]amino}benzoate]
0.1 to 3 | FC(F)(F)c1ccc(Nc2cncc(-n3c(Cl)nc4ccccc43)n2)cc1 [compound 134, 6-(2-chloro-1H-benzimidazol-1-yl)-N-[4-(trifluoromethyl)phenyl]pyrazin-2-amine]
0.1 to 3 | FC(F)(F)c1ccc(Nc2cccc(-n3c(C(F)(F)F)nc4ncccc43)n2)cc1 [compound 137, 6-[2-(trifluoromethyl)-1H-imidazo[4,5-b]pyridin-1-yl]-N-[4-(trifluoromethyl)phenyl]pyridin-2-amine]
0.01 to 0.1 | Cc1nc2ncccc2n1-c1cccc(Nc2ccc(C(F)(F)F)cc2)n1 [compound 139, 6-(2-methyl-1H-imidazo[4,5-b]pyridin-1-yl)-N-[4-(trifluoromethyl)phenyl]pyridin-2-amine]
0.01 to 0.1 | CCc1nc2ncccc2n1-c1cccc(Nc2ccc(C(F)(F)F)cc2)n1 [compound 140, 6-(2-ethyl-1H-imidazo[4,5-b]pyridin-1-yl)-N-[4-(trifluoromethyl)phenyl]pyridin-2-amine]
0.1 to 3 | FC(F)(F)Oc1ccc(Nc2cncc(-c3c(C(F)(F)F)nc4cnccn34)n2)cc1 [compound 141, N-[4-(trifluoromethoxy)phenyl]-6-[2-(trifluoromethyl)imidazo[1,2-a]pyrazin-3-yl]pyrazin-2-amine]
0.01 to 0.1 | FC(F)Oc1ccc(Nc2cncc(-c3c(C(F)(F)F)nc4cnccn34)n2)cc1 [compound 142, N-[4-(difluoromethoxy)phenyl]-6-[2-(trifluoromethyl)imidazo[1,2-a]pyrazin-3-yl]pyrazin-2-amine]
0.1 to 3 | Cc1nn(C)c(C)c1-c1cccc(Nc2ccc(OC(F)(F)F)cc2)n1 [compound 144, N-[4-(trifluoromethoxy)phenyl]-6-(1,3,5-trimethyl-1H-pyrazol-4-yl)pyridin-2-amine]
0.01 to 0.1 | Cc1nc2ccccc2n1-c1cncc(Nc2ccc(CO)cc2)n1 [compound 152, (4-{[6-(2-methyl-1H-benzimidazol-1-yl)pyrazin-2-yl]amino}phenyl)methanol]
0.01 to 0.1 | Cc1nc2ccccc2n1-c1cncc(Nc2ccc(C(C)O)cc2)n1 (stereo not drawn) [compound 155, 1-(4-{[6-(2-methyl-1H-benzimidazol-1-yl)pyrazin-2-yl]amino}phenyl)ethanol]
0.001 to 0.01 | C/C(=N\O)c1ccc(Nc2cncc(-n3c(C)nc4ccccc43)n2)cc1 [compound 156, N-{4-[(1E)-N-hydroxyethanimidoyl]phenyl}-6-(2-methyl-1H-benzimidazol-1-yl)pyrazin-2-amine]
0.1 to 3 | N#Cc1nc2ccccc2n1-c1cncc(Nc2ccc(C(F)(F)F)cc2)n1 [compound 157, 1-(6-{[4-(trifluoromethyl)phenyl]amino}pyrazin-2-yl)-1H-benzimidazole-2-carbonitrile]

Source: patent publication US10584115B2, “Substituted pyridine and pyrazine BMI-1 inhibitors” (PTC Therapeutics, Inc., priority 2013, dated 2020)
